Where a name gives a salt, the structure may show the parent alone.

For this assay, the target named is T1, CRF-1 (UniProt P34998).
T1 sequence (P34998 1-415): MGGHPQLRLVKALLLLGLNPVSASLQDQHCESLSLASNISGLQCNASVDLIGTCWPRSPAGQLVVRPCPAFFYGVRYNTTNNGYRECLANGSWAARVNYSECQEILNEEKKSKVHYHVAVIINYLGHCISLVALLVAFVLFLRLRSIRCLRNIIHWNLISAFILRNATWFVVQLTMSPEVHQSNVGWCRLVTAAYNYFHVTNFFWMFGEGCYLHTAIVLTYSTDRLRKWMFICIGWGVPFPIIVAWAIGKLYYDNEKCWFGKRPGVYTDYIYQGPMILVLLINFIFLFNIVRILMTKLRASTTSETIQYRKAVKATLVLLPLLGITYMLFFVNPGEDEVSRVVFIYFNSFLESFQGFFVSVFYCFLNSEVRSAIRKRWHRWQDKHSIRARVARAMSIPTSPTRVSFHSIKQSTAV
As to the kind of experiment: CRF-1 receptor antagonism, HTRF cAMP assay in CHO cells. In kind it is cell-based, human. The note with it: Biological data Table 1; inhibition of CRF induced cAMP response in CHO cells, EC50 concentration of CRF. As for the experimental part: The CRF-1 and CRF-2 receptor antagonistic activity of the agents of the invention has been determined in vitro in the following assay:
Chinese hamster ovary (CHO) cells expressing either the human or rat recombinant CRF-1 or human CRF-2α (Chen et al, Proc Natl Acad Sci USA 90, 8967-8971, 1993; Liaw et al, Endocrinology 137, 72-77, 1996) are propagated in Dulbecco's modified Eagle medium supplemented with 10% foetal calf serum, non-essential amino acids, 100 U/ml penicillin, 100 mg/l streptomycin and 1 g/l geneticin. CHO cells expressing the rat CRF-2β receptor (Wu et al, Endocrinology 148, 1675-1687, 2007) are propagated in HAM's-F12 Glutamax supplemented with 10% foetal calf serum, 100 IU/ml penicillin, 100 mg/l streptomycin, 600 μg/ml hygromycin, 10 μg/ml blasticidin and induced with 1 μg/ml of tetracyclin for 24 hours prior to experimentation. For cyclic AMP determinations the Homogeneous Time-Resolved Fluoresce (HTRF) cAMP dynamic 2 kit (Cisbio International, France) was used as per manufacturers' instructions. CHO cells, previously cryopreserved at 3×10^6 viable cells per ml of cell recovery media (Cat no. 12648-010, Invitrogen), were thawed, centrifuged for 7 mins at 1200 rpm and resuspended in serum free media to give a concentration of 0.5×10^6 cells per/ml. Compounds of the invention, prepared in DMSO, and subsequently diluted 50 fold in assay buffer (1× Hanks balanced salt solution, 0.2% (w/v) bovine serum albumin, 1.7 mM isobutylmethylxanthine and 10 mM Hepes, pH7.4) were then added onto the 384 well low volume black assay plate (Corning Inc, US, Cat. 3676). 2000 cells/well were then added to the assay plate further diluting the compound 2 fold and then the plate was incubated for 15 mins at room temperature. Following incubation, buffer containing a 5 times final concentration of agonist, typically r/h CRF is added to the plate and incubated for 30 min at room temperature. Finally, d2 dye labeled cAMP and cryptate labeled anti-cAMP antibody, both made in lysis buffer, are added to the plate followed by a settling period of 1 hour at room temperature. During the settling period cAMP produced by the cells competes with the d2 labelled cAMP for the anti-cAMP cryptate. The plate is read on the Pherastar (BMG, Germany). Increasing levels of endogenous cAMP produced by cells can be followed by a decrease of FRET fluorescent signal and vice versa. Values represented by a change in arbitrary fluorescence units are converted into cAMP concentrations by use of a standard curve, the reagents for which are supplied with the kit. Antagonist dose response curves (1 nM-31.6 μM) are constructed and tested in the presence of an EC50 concentration of CRF relevant to the receptor (hCRF-1=3 nM, hCRF-2α=2 nM, rCRF-1=1 nM and rCRF-2β=0.1 nM). IC50 values of antagonists are calculated by fitting the percent inhibition of CRF induced cAMP response by increasing concentrations of the antagonists. The fit is performed using the nonlinear logistic function of the Activitybase software package v 5.4.5.27 (IDBS, UK).
In general terms: Time-resolved FRET reads energy transfer from a long-lived donor to a nearby acceptor.

As a reminder, the IC50 is the concentration needed to halve the response being measured. Higher therefore signals lower potency. `O=C(N[C@H]1CC[C@H](CN2C(=O)Cc3ccc(Cl)cc32)CC1)c1cc(C(F)(F)F)ccc1Cl` [Example 1.1, Trans-2-Chloro-N-[4-(6-chloro-2-oxo-2,3-dihydro-indol-1-ylmethyl)-cyclohexyl]-5-trifluoromethyl-benzamide] gave a 50% inhibitory concentration (IC50) of 65 nM.

Take `O=C(N[C@H]1CC[C@H](CN2C(=O)C(F)(F)c3ccc(Cl)cc32)CC1)c1cc(C(F)(F)F)ccc1Cl` [Example 2.1, Trans-2-chloro-N-[4-(6-chloro-3,3-difluoro-2-oxo-2,3-dihydro-indol-1-ylmethyl)-cyclohexyl]-5-trifluoromethyl-benzamide]: the 50% inhibitory concentration (IC50) was 149 nM.

The compound `Cc1ncc(Cl)cc1C(=O)N[C@H]1CC[C@H](CN2C(=O)C(C)(C)c3cccnc32)CC1` [Example 2.3, Trans-5-chloro-N-[4-(3,3-dimethyl-2-oxo-2,3-dihydro-pyrrolo[2,3-b]pyridin-1-ylmethyl)-cyclohexyl]-2-methyl-nicotinamide] had an IC50 of 242 nM.

Compound `O=C(N[C@H]1CC[C@H](CN2C(=O)Cc3cccnc32)CC1)c1cc(C(F)(F)F)ccc1Cl` [Example 2.4, Trans-2-chloro-N-[4-(2-oxo-2,3-dihydro-pyrrolo[2,3-b]pyridin-1-ylmethyl)-cyclohexyl]-5-trifluoromethyl-benzamide] gave a half-inhibitory concentration (IC50) of 900 nM.

With `O=C(N[C@H]1CC[C@H](CN2C(=O)C3(CC3)c3cc(F)ccc32)CC1)c1cc(C(F)(F)F)ccc1Cl` [Example 2.5, Trans-2-chloro-N-{-4-((5′-fluoro-2′-oxospiro[cyclopropane-1,3′-indoline]-1′-yl)methyl)cyclohexyl}-5-(trifluoromethyl)benzamide], the IC50 worked out at 9 nM.

With `COc1ccc2c(c1)C(C)(C)C(=O)N2C[C@H]1CC[C@H](NC(=O)c2cc(C(F)(F)F)ccc2Cl)CC1` [Example 2.7, Trans-2-Chloro-N-[4-(5-methoxy-3,3-dimethyl-2-oxo-2,3-dihydro-indol-1-ylmethyl)-cyclohexyl]-5-trifluoromethyl-benzamide], the IC50 is 166 nM.

For `COc1cc2c(cn1)C(C)(C)C(=O)N2C[C@H]1CC[C@H](NC(=O)c2cc(C(F)(F)F)ccc2Cl)CC1` [Example 2.8, Trans-2-Chloro-N-[4-(6-methoxy-3,3-dimethyl-2-oxo-2,3-dihydro-pyrrolo[3,2-c]pyridin-1-ylmethyl)-cyclohexyl]-5-trifluoromethyl-benzamide], the IC50 was 347 nM.

With `C[C@]1(F)C(=O)N(C[C@H]2CC[C@H](NC(=O)c3cc(C(F)(F)F)ccc3Cl)CC2)c2ccccc21` [Example 2.9, Trans-2-Chloro-N-[4-((R)-3-fluoro-3-methyl-2-oxo-2,3-dihydro-indol-1-ylmethyl)-cyclohexyl]-5-trifluoromethyl-benzamide], the IC50 was found to be 16 nM.

Take `C[C@@]1(F)C(=O)N(C[C@H]2CC[C@H](NC(=O)c3cc(C(F)(F)F)ccc3Cl)CC2)c2ccccc21` [Example 2.10, Trans-2-Chloro-N-[4-((S)-3-fluoro-3-methyl-2-oxo-2,3-dihydro-indol-1-ylmethyl)-cyclohexyl]-5-trifluoromethyl-benzamide]: 201 nM corresponded to half-maximal inhibition (IC50).

`CCn1c(=O)n(C[C@H]2CC[C@H](NC(=O)c3cc(Cl)cnc3C)CC2)c2ccncc21` [Example 2.42, Trans-5-Chloro-N-[4-(3-ethyl-2-oxo-2,3-dihydro-imidazo[4,5-c]pyridin-1-ylmethyl)-cyclohexyl]-2-methyl-nicotinamide]: half-maximal inhibition (IC50) required 275 nM.

The compound `Cc1ncc(Cl)cc1C(=O)N[C@H]1CC[C@H](Cn2c(=O)n(C)c3nccc(C)c32)CC1` [Example 2.43, Trans-5-Chloro-N-[4-(3,7-dimethyl-2-oxo-2,3-dihydro-imidazo[4,5-b]pyridin-1-ylmethyl)-cyclohexyl]-2-methyl-nicotinamide] showed an IC50 of 416 nM.

As to `Cc1ncc(C(F)(F)F)cc1C(=O)N[C@H]1CC[C@H](CN2C(=O)C(C)(C)c3ccccc32)CC1` [Example 2.52, Trans-N-[4-(3,3-Dimethyl-2-oxo-2,3-dihydro-indol-1-ylmethyl)-cyclohexyl]-2-methyl-5-trifluoromethyl-nicotinamide], the midpoint of inhibition, the IC50, lay at 612 nM.

On to `O=C(N[C@H]1CC[C@H](CN2C(=O)Cc3cc(Cl)ccc32)CC1)c1cc(C(F)(F)F)ccc1Cl` [Example 3.1, Trans-2-Chloro-N-[4-(5-chloro-2-oxo-2,3-dihydro-indol-1-ylmethyl)-cyclohexyl]-5-trifluoromethyl-benzamide], for which 205 nM corresponded to half-maximal inhibition (IC50).

The compound `CC1(C)C(=O)N(C[C@H]2CC[C@H](NC(=O)c3cc(C(F)(F)F)ccc3Cl)CC2)c2ccc(F)cc21` [Example 3.3, Trans-2-Chloro-N-[4-(5-fluoro-3,3-dimethyl-2-oxo-2,3-dihydro-indol-1-ylmethyl)-cyclohexyl]-5-trifluoromethyl-benzamide] had an IC50 of 28 nM.

Turning to `Cn1c(=O)n(C[C@H]2CC[C@H](NC(=O)c3cc(C(F)(F)F)ccc3Cl)CC2)c2ncccc21` [Example 3.6, Trans-2-Chloro-N-[4-(1-methyl-2-oxo-1,2-dihydro-imidazo[4,5-b]pyridin-3-ylmethyl)-cyclohexyl]-5-trifluoromethyl-benzamide], the half-maximal inhibitory concentration (IC50) was found to be 145 nM.

With `O=C(N[C@H]1CC[C@H](Cn2c(=O)[nH]c3ccccc32)CC1)c1cc(C(F)(F)F)ccc1Cl` [Example 3.7, Trans-2-Chloro-N-[4-(2-oxo-2,3-dihydro-bcnzoimidazol-1-ylmethyl)-cyclohexyl]-5-trifluoromethyl-benzamide], the IC50 was determined as 91 nM.

`Cn1c(=O)n(C[C@H]2CC[C@H](NC(=O)c3cc(C(F)(F)F)ccc3Cl)CC2)c2ccccc21` [Example 3.8, Trans-2-Chloro-N-[4-(3-methyl-2-oxo-2,3-dihydro-benzoimidazol-1-ylmethyl)-cyclohexyl]-5-trifluoromethyl-benzamide]: 37 nM corresponded to half-maximal inhibition (IC50).

`Cn1c(=O)n(C[C@H]2CC[C@H](NC(=O)c3cc(Cl)ccc3Cl)CC2)c2ccccc21` [Example 4.2, Trans-2,5-Dichloro-N-[4-(3-methyl-2-oxo-2,3-dihydro-benzoimidazol-1-ylmethyl)-cyclohexyl]-benzamide trifluoroacetate] gave a half-maximal inhibitory concentration (IC50) of 118 nM.

In turn, `CC1(C)C(=O)N(C[C@H]2CC[C@H](NC(=O)c3cc(Cl)ccc3Cl)CC2)c2ccccc21` [Example 5.2, Trans-2,5-Dichloro-N-[4-(3,3-dimethyl-2-oxo-2,3-dihydro-indol-1-ylmethyl)-cyclohexyl]-benzamide] returned an IC50 of 126 nM.

Values taken from patent US20110201629A1, “CYCLOHEXYL AMIDE DERIVATIVES AS CRF RECEPTOR ANTAGONISTS” (priority 2010, published 2011).
